Data on two compounds can be found in patent US20050222253A1, “Anti-cancer nitro- and thia-fatty acids” (priority 1999, published 2005).

Entries after “also recorded” stand apart in the source; their conditions may differ.

Data set [1] deals with T1, 5-LO (Solanum tuberosum, UniProt P37831). Briefly: 5-LO catalysed oxidation of the nitro compounds (substrate test). It counts as biochemical. Particulars: pH 6.3 buffer, 234 nm. The protocol: (§1) Based on this consideration, 5-LO, 12-LO and 15-LO catalysed oxidation of the nitro compounds (4a, 4b, 6a, 6b, 8a and 8b) was investigated. Each of the nitro compounds was treated with 15-LO in pH 9.0 buffer (or 5-LO in pH 6.3 buffer and 12-LO in pH 7.4 buffer), and the formation of 15-hydroperoxy derivatives (or 5-hydroperoxy or 12-hydroperoxy derivatives) over time was monitored by LW spectroscopy at 234 nm.

Data set [2] deals with T2, 15-LO (Glycine max, UniProt P08170).
T2 construct: purchased Sigma Chemical Company
T2 sequence (P08170 1-839): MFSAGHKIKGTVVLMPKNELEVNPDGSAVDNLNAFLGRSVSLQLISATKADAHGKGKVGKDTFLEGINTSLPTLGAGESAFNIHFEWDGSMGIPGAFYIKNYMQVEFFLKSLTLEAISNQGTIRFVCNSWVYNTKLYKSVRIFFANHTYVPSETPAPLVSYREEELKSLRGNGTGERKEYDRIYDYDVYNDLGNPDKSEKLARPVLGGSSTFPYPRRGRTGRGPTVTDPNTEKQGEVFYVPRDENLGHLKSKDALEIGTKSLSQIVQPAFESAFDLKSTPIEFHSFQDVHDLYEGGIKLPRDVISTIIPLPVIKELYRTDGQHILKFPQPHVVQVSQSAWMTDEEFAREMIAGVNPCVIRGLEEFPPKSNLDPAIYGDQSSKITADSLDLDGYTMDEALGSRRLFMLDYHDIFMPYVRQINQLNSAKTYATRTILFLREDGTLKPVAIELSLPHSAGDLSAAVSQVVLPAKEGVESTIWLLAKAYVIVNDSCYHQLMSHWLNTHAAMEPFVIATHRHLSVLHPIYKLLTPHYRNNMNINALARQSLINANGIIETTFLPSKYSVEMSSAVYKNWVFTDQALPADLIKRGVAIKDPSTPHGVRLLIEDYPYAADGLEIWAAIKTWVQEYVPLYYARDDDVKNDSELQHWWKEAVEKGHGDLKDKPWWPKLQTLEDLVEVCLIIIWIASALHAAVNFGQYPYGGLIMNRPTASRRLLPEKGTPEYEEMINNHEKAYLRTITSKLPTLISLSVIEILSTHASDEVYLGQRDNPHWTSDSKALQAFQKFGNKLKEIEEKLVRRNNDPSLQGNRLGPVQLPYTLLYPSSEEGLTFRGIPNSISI
Briefly: 15-LO catalysed oxidation of the nitro compounds (substrate test). It counts as biochemical, soybean. Particulars: pH 9.0 buffer, 234 nm. The protocol:
as §1

Another data set concerns MCF-7 cells. The experiment in a line: Killing of MCF-7 breast cancer cells in vitro. Particulars: in vitro (FIG. 7); compared with 20:4n-6 toxicity. Type of data set: cell-based, human. From the text: While interference with 5-LOX or 12-LOX activity individually impacts on growth rates of human breast cancer MCF-7 cells^(55,56), the simultaneous modification of the activities of both enzymes at once may cause death. […] Lx4, a nitroso-compound with the same number of carbon atoms and degree of unsaturation as Lx9 but lacking a COOH group, was ineffective (FIG. 7).

Data set [3] addresses T3, 12-LO (Sus scrofa, UniProt P16469).
T3 construct: purchased Cayman Chemical Company
T3 sequence (P16469 1-663): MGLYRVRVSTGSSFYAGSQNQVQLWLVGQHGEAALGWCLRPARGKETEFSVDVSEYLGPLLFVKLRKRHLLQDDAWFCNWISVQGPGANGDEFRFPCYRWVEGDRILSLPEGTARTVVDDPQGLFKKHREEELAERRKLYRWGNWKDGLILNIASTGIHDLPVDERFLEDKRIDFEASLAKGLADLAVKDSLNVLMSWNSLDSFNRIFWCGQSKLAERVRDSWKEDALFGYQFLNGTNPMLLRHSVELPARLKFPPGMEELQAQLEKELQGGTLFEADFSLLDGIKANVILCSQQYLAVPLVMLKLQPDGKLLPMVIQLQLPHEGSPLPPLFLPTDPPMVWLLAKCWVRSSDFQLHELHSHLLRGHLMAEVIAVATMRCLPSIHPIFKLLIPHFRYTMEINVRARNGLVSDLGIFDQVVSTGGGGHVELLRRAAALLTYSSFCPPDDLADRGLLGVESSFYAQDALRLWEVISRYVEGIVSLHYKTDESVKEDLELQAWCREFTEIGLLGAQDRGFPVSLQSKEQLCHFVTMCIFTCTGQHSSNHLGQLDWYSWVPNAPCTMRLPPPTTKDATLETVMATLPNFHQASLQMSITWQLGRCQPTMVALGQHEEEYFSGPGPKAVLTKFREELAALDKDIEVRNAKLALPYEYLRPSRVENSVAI
The experiment in a line: Effect on 12-LO catalysed oxidation of arachidonic acid. Particulars: preliminary experiment; result in words. It counts as biochemical, porcine. The protocol:
as §1
A number of Lx compounds were tested for anti 5-LOX and 12-LOX activities in the human breast cancer cell line, MCF-7. […] The ability of 5-LOX and 12-LOX to produce oxidated products of 20:4n-6 with a different absorption wavelength in the presence of nitroso-PUFA was examined and is shown in the progress curves in FIG. 6. […] Within cells, activation of 5-LOX is facilitated by 5-LOX activating protein (FLAP). Thus, in intact cells, Lx7 and Lx9 may be able to activate 5-LOX at lower concentrations than those required in the purified enzyme system shown in FIG. 6. […] By being able to activate 5-LOX and suppress 12-LOX, these compounds have the desired characteristics of anti-breast cancer agents as discussed previously.
(§2) 15-LO was obtained from Sigma Chemical Company, and 12-LO from Cayman Chemical Company. Arachidonic acid 1, linolenyl alcohol 57a, gamma linolenyl alcohol 5b, arachidonyl alcohol 57c and docosahexaenyl alcohol 57d were purchased from Nu-Chek Prep. Inc. Elysian, Minn., USA. Other chemicals were commercially available from Aldrich Chemical Company.

Data set [4] deals with T1, 5-LO. Briefly: Effect on 5-LO catalysed oxidation of arachidonic acid. Particulars: preliminary experiment; purified enzyme; result in words. Type of data set: biochemical. As for the experimental part:
Based on this consideration, 5-LO, 12-LO and 15-LO catalysed oxidation of the nitro compounds (4a, 4b, 6a, 6b, 8a and 8b) was investigated. Each of the nitro compounds was treated with 15-LO in pH 9.0 buffer (or 5-LO in pH 6.3 buffer and 12-LO in pH 7.4 buffer), and the formation of 15-hydroperoxy derivatives (or 5-hydroperoxy or 12-hydroperoxy derivatives) over time was monitored by LW spectroscopy at 234 nm. […]

Data set [5] addresses T2, 15-LO. Briefly: Effect on 15-LO catalysed oxidation of arachidonic acid. The settings on record: preliminary experiment, result in words. It counts as biochemical, soybean.
The target in data set [6] is T3, 12-LO. Briefly: 12-LO catalysed oxidation of the nitro compounds (substrate test). Particulars: pH 7.4 buffer, 234 nm. Type of data set: biochemical, porcine. The protocol: as §1
Data set [7] deals with T2, 15-LO. The experiment in a line: Effect on 15-LO catalysed oxidation of arachidonic acid. Particulars: varying concentrations of compound. Type of data set: biochemical, soybean. The protocol:
as §1
The inhibitor constant (Ki or KI) of compound 8a was also determined.
as §2

The mark [8] stands for this setting: listed as (all-Z)-1-nitrotricosa-8,11,14,17-tetraenoic acid.

T1 sequence (P37831 whole entry): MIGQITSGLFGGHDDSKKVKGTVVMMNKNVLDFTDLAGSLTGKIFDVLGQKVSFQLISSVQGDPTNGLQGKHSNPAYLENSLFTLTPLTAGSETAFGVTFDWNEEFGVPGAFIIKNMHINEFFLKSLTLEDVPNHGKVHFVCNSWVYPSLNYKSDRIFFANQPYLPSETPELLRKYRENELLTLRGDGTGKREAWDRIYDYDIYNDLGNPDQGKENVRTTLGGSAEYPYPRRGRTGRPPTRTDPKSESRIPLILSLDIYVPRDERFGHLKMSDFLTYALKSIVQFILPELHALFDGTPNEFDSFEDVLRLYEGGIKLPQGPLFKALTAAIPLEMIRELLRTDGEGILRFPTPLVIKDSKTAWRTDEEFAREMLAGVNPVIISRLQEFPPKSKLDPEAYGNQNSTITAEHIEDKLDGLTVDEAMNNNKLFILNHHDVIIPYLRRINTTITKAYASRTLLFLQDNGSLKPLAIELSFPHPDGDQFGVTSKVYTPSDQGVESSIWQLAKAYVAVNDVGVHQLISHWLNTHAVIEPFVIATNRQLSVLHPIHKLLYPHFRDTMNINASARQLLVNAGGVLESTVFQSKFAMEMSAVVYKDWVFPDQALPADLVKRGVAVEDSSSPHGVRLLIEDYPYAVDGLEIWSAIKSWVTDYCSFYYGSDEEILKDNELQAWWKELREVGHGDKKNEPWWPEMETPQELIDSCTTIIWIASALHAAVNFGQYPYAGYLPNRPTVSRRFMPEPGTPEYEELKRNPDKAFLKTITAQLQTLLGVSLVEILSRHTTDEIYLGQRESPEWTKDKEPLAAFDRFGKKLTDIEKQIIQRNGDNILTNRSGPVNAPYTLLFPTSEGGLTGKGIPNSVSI

Regarding `CCCCC/C=C\C/C=C\C/C=C\C/C=C\CCCC(CCC(=O)O)[N+](=O)[O-]` (centres unmarked) [Lx7, (all-Z)-4-Nitrotricosa-8,11,14,17-tetraenoic acid], the “Substrate for 5-LO (formation of 5-hydroperoxy derivative)” value at 5-LO [1] was “not for 5-LO”. The figures for the “Substrate for 15-LO (formation of 15-hydroperoxy derivative)” value at 15-LO [2] (listed as 6b) and on 15-LO [2] (setting [8]) were “served as a substrate” and “good substrate; also recorded: comparable to that of arachidonic acid”, respectively. In addition, in the data set on MCF-7 cells, the “Killing of MCF-7 tumour cells” value is “kill these tumour cells”. Further, the “Effect on 12-LO catalysed oxidation of AA” value on 12-LO [3] is listed as “Substrate”. Also, the “Effect on 5-LO catalysed oxidation of AA” value at 5-LO [4] is recorded as “can activate 5-LOX; also recorded: Activatory”. In addition, the “Effect on 15-LO catalysed oxidation of AA” value at 15-LO [5] is listed as “Substrate”. The “Substrate for 12-LO (formation of 12-hydroperoxy derivative)” value on 12-LO [6] is “substrate for 12-LOX”; on 12-LO [6] (listed as 6b), “served as a substrate”; at 12-LO [6] (setting [8]), “good substrate”.

The melting point is the temperature, or range, at which the solid turns liquid. Turning to `CCCCCCCCCCCCCCCCCC(CCC(=O)O)(CCC(=O)O)[N+](=O)[O-]` [Lx8, 3-Heptadecyl-3-nitropentane-1,5-dicarboxylic acid], the melting point is 102 °C. The “Effect on 12-LO catalysed oxidation of AA” value on 12-LO [3] is listed as “Activatory”. Moreover, the “Inhibition pattern on 15-LO (1/v vs 1/[s])” value at 15-LO [7] is “mixed inhibition pattern”. For the same compound, the “Effect on 5-LO catalysed oxidation of AA” value on 5-LO [4] is “Nil”. Further, the “Effect on 15-LO catalysed oxidation of AA” value on 15-LO [5] was “Inhibitory”. The “Effect on 15-LO catalysed oxidation of AA” value at 15-LO [5] (listed as 3-heptadecyl-3-nitropentane-1,5-dicarboxylic acid) is “selective inhibitors”. The “Effect on 15-LO catalysed oxidation of AA” value on 15-LO [5] (listed as 8a) is “inhibitory effect”.
